Assays:
Assay in all cases: cells
[1] = test system: CTB-1; assay type: functional, cell-based, Homo sapiens; settings: Homo sapiens, CTB-1
Description: SANGER: Inhibition of human CTB-1 cell growth in a cell viability assay.

[2] = test system: DB; assay type: functional, cell-based, Homo sapiens; settings: Homo sapiens, DB
Description: SANGER: Inhibition of human DB cell growth in a cell viability assay.

[3] = test system: DEL; assay type: functional, cell-based, Homo sapiens; settings: Homo sapiens, DEL;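 further: growth inhibition of the human DEL cell line, read out with a cell viability assay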
Description: SANGER: Inhibition of human DEL cell growth in a cell viability assay.

[4] = test system: EKVX; assay type: functional, cell-based, Homo sapiens; settings: Homo sapiens, EKVX;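 further: growth inhibition of human EKVX cells, read out with a cell viability assay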
Description: SANGER: Inhibition of human EKVX cell growth in a cell viability assay.

[5] = test system: ES5; assay type: functional, cell-based, Homo sapiens; settings: Homo sapiens, ES5;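 further: growth inhibition of human ES5 cells, read out by a cell viability assay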
Description: SANGER: Inhibition of human ES5 cell growth in a cell viability assay.

[6] = test system: EW-1; assay type: functional, cell-based, Homo sapiens; settings: Homo sapiens, EW-1;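 further: growth inhibition of the human EW-1 cell line, read out by a cell viability assay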
Description: SANGER: Inhibition of human EW-1 cell growth in a cell viability assay.

[7] = test system: GAK; assay type: functional, cell-based, Homo sapiens; settings: Homo sapiens, GAK;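 further: cell growth inhibition read out by a cell viability assay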
Description: SANGER: Inhibition of human GAK cell growth in a cell viability assay.

[8] = test system: GI-1; assay type: functional, cell-based, Homo sapiens; settings: Homo sapiens, GI-1;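 further: growth inhibition of human GI-1 cells, measured with a cell viability readout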
Description: SANGER: Inhibition of human GI-1 cell growth in a cell viability assay.

[9] = test system: GOTO; assay type: functional, cell-based, Homo sapiens; settings: Homo sapiens, GOTO;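 further: growth inhibition of GOTO cells, read out by a cell viability assay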
Description: SANGER: Inhibition of human GOTO cell growth in a cell viability assay.

[10] = test system: HCC 2998; assay type: functional, cell-based, Homo sapiens; settings: Homo sapiens, HCC 2998;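 further: growth inhibition of human HCC2998 cells, measured with a cell viability read-out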
Description: SANGER: Inhibition of human HCC2998 cell growth in a cell viability assay.

[11] = test system: HDLM-2; assay type: functional, cell-based, Homo sapiens; settings: Homo sapiens, HDLM-2;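 further: cell viability assay measuring suppression of HDLM-2 proliferation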
Description: SANGER: Inhibition of human HDLM-2 cell growth in a cell viability assay.

[12] = test system: HuTu80; assay type: functional, cell-based, Homo sapiens, HUTU-80; settings: Homo sapiens, HuTu80;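 further: growth inhibition of HuTu80 human cells, determined with a cell viability readout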
Description: SANGER: Inhibition of human HUTU-80 cell growth in a cell viability assay.

[13] = test system: IST-MES1; assay type: functional, cell-based, Homo sapiens; settings: Homo sapiens, IST-MES1;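 further: growth inhibition of IST-MES1 cells, measured with a cell viability assay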
Description: SANGER: Inhibition of human IST-MES1 cell growth in a cell viability assay.

[14] = test system: JAR; assay type: functional, cell-based, Homo sapiens; settings: Homo sapiens, JAR;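 further: growth inhibition of human JAR cells determined with a cell viability assay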
Description: SANGER: Inhibition of human JAR cell growth in a cell viability assay.

[15] = test system: JVM-3; assay type: functional, cell-based, Homo sapiens; settings: Homo sapiens, JVM-3;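 further: growth inhibition of human JVM-3 cells, read out with a cell viability assay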
Description: SANGER: Inhibition of human JVM-3 cell growth in a cell viability assay.

[16] = test system: KINGS-1; assay type: functional, cell-based, Homo sapiens; settings: Homo sapiens, KINGS-1;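 further: cell viability assay measuring suppression of KINGS-1 cell growth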
Description: SANGER: Inhibition of human KINGS-1 cell growth in a cell viability assay.

[17] = test system: KNS-42; assay type: functional, cell-based, Homo sapiens; settings: Homo sapiens, KNS-42;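 further: growth inhibition of KNS-42 cells, read out with a cell viability assay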
Description: SANGER: Inhibition of human KNS-42 cell growth in a cell viability assay.

[18] = test system: L-363; assay type: functional, cell-based, Homo sapiens; settings: Homo sapiens, L-363
Description: SANGER: Inhibition of human L-363 cell growth in a cell viability assay.

[19] = test system: LC-2-ad; assay type: functional, cell-based, Homo sapiens; settings: Homo sapiens, LC-2-ad;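 further: growth inhibition of human LC-2-ad cells, read out with a cell viability assay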
Description: SANGER: Inhibition of human LC-2-ad cell growth in a cell viability assay.

[20] = test system: LS-123; assay type: functional, cell-based, Homo sapiens; settings: Homo sapiens, LS-123
Description: SANGER: Inhibition of human LS-123 cell growth in a cell viability assay.

[21] = test system: LU-139; assay type: functional, cell-based, Homo sapiens; settings: Homo sapiens, LU-139
Description: SANGER: Inhibition of human LU-139 cell growth in a cell viability assay.

[22] = test system: MEG-01; assay type: functional, cell-based, Homo sapiens; settings: Homo sapiens, MEG-01;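 further: growth inhibition of MEG-01 cells, read out by a cell viability assay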
Description: SANGER: Inhibition of human MEG-01 cell growth in a cell viability assay.

[23] = test system: MFH-ino; assay type: functional, cell-based, Homo sapiens; settings: Homo sapiens, MFH-ino;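 further: growth inhibition of human MFH-ino cells, read out by a cell viability assay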
Description: SANGER: Inhibition of human MFH-ino cell growth in a cell viability assay.

[24] = test system: MFM-223; assay type: functional, cell-based, Homo sapiens; settings: Homo sapiens, MFM-223
Description: SANGER: Inhibition of human MFM-223 cell growth in a cell viability assay.

[25] = test system: MOLT-16; assay type: functional, cell-based, Homo sapiens; settings: Homo sapiens, MOLT-16;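 further: growth inhibition of human MOLT-16 cells, read out with a cell viability assay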
Description: SANGER: Inhibition of human MOLT-16 cell growth in a cell viability assay.

[26] = test system: MZ2-MEL; assay type: functional, cell-based, Homo sapiens; settings: Homo sapiens, MZ2-MEL;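 further: growth inhibition of MZ2-MEL cells read out with a cell viability assay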
Description: SANGER: Inhibition of human MZ2-MEL cell growth in a cell viability assay.

[27] = test system: MZ7-mel; assay type: functional, cell-based, Homo sapiens; settings: Homo sapiens, MZ7-mel;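 further: growth inhibition of human MZ7-mel cells, measured by a cell viability assay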
Description: SANGER: Inhibition of human MZ7-mel cell growth in a cell viability assay.

[28] = test system: NCI-H1648; assay type: functional, cell-based, Homo sapiens; settings: Homo sapiens, NCI-H1648;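 further: cell viability assay measuring inhibition of NCI-H1648 cell growth, from the Sanger screening data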
Description: SANGER: Inhibition of human NCI-H1648 cell growth in a cell viability assay.

[29] = test system: NCI-H226; assay type: functional, cell-based, Homo sapiens; settings: Homo sapiens, NCI-H226;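 further: cell viability read-out used to gauge growth inhibition of the cells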
Description: SANGER: Inhibition of human NCI-H226 cell growth in a cell viability assay.

[30] = test system: NCI-H446; assay type: functional, cell-based, Homo sapiens; settings: Homo sapiens, NCI-H446;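 further: growth inhibition of NCI-H446 cells determined by a cell viability assay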
Description: SANGER: Inhibition of human NCI-H446 cell growth in a cell viability assay.

[31] = test system: NCI-H510A; assay type: functional, cell-based, Homo sapiens; settings: Homo sapiens, NCI-H510A;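 further: growth inhibition of NCI-H510A cells, read out with a cell viability assay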
Description: SANGER: Inhibition of human NCI-H510A cell growth in a cell viability assay.

[32] = test system: NCI-H720; assay type: functional, cell-based, Homo sapiens; settings: Homo sapiens, NCI-H720;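 further: growth inhibition of human NCI-H720 cells determined by a cell viability assay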
Description: SANGER: Inhibition of human NCI-H720 cell growth in a cell viability assay.

[33] = test system: NCI-N87; assay type: functional, cell-based, Homo sapiens; settings: Homo sapiens, NCI-N87;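 further: growth inhibition of human NCI-N87 cells, read out with a cell viability assay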
Description: SANGER: Inhibition of human NCI-N87 cell growth in a cell viability assay.

[34] = test system: NEC8; assay type: functional, cell-based, Homo sapiens; settings: Homo sapiens, NEC8;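 further: growth inhibition of human NEC8 cells, read out by a cell viability assay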
Description: SANGER: Inhibition of human NEC8 cell growth in a cell viability assay.

[35] = test system: NTERA-2-cl-D1; assay type: functional, cell-based, Homo sapiens; settings: Homo sapiens, NTERA-2-cl-D1;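 further: inhibition of cell growth, measured with a cell viability assay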
Description: SANGER: Inhibition of human NTERA-S-cl-D1 cell growth in a cell viability assay.

[36] = test system: OCI-AML2; assay type: functional, cell-based, Homo sapiens; settings: Homo sapiens, OCI-AML2;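 further: growth inhibition of OCI-AML2 cells, read out with a cell viability assay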
Description: SANGER: Inhibition of human OCI-AML2 cell growth in a cell viability assay.

[37] = test system: OMC-1; assay type: functional, cell-based, Homo sapiens; settings: Homo sapiens, OMC-1;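 further: growth inhibition of the OMC-1 cell line, measured by a cell viability assay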
Description: SANGER: Inhibition of human OMC-1 cell growth in a cell viability assay.

[38] = test system: OS-RC-2; assay type: functional, cell-based, Homo sapiens; settings: Homo sapiens, OS-RC-2;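 further: growth inhibition of human OS-RC-2 cells, measured by a cell viability assay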
Description: SANGER: Inhibition of human OS-RC-2 cell growth in a cell viability assay.

[39] = test system: SHP77; assay type: functional, cell-based, Homo sapiens, SHP-77; settings: Homo sapiens, SHP77;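 further: growth inhibition of human SHP-77 cells measured by a cell viability assay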
Description: SANGER: Inhibition of human SHP-77 cell growth in a cell viability assay.

[40] = test system: SK-MEL-2; assay type: functional, cell-based, Homo sapiens; settings: Homo sapiens, SK-MEL-2;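 further: growth inhibition of human SK-MEL-2 cells measured with a cell viability assay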
Description: SANGER: Inhibition of human SK-MEL-2 cell growth in a cell viability assay.

[41] = test system: SK-N-DZ; assay type: functional, cell-based, Homo sapiens; settings: Homo sapiens, SK-N-DZ;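 further: growth inhibition of the cancer cell line, read out through a viability assay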
Description: SANGER: Inhibition of human SK-N-DZ cell growth in a cell viability assay.

[42] = test system: SW872; assay type: functional, cell-based, Homo sapiens; settings: Homo sapiens, SW872;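 further: growth inhibition of SW872 cells, read out by a viability assay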
Description: SANGER: Inhibition of human SW872 cell growth in a cell viability assay.

[43] = test system: A388; assay type: functional, cell-based, Homo sapiens; settings: Homo sapiens, A388;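 further: growth inhibition of human A388 cells, read out with a cell viability assay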
Description: SANGER: Inhibition of human A388 cell growth in a cell viability assay.

[44] = test system: ACN; assay type: functional, cell-based, Homo sapiens; settings: Homo sapiens, ACN;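 further: growth inhibition of the human ACN cell line, read out via cell viability testing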
Description: SANGER: Inhibition of human ACN cell growth in a cell viability assay.

[45] = test system: TE-12; assay type: functional, cell-based, Homo sapiens; settings: Homo sapiens, TE-12;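 further: growth inhibition of TE-12 cells, read out by a cell viability assay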
Description: SANGER: Inhibition of human TE-12 cell growth in a cell viability assay.

[46] = test system: UACC-257; assay type: functional, cell-based, Homo sapiens; settings: Homo sapiens, UACC-257
Description: SANGER: Inhibition of human UACC-257 cell growth in a cell viability assay.

[47] = test system: no-10; assay type: functional, cell-based, Homo sapiens; settings: Homo sapiens;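 further: growth inhibition of no-10 cells, read out with a cell viability assay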
Description: SANGER: Inhibition of human no-10 cell growth in a cell viability assay.

[48] = test system: COLO-320-HSR; assay type: functional, cell-based, Homo sapiens; settings: Homo sapiens, COLO-320-HSR;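 further: growth inhibition of COLO-320-HSR cells, determined with a cell viability assay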
Description: SANGER: Inhibition of human COLO-320-HSR cell growth in a cell viability assay.

Cc1cc([N+](=O)[O-])ccc1NS(=O)(=O)c1cc(Cl)ccc1Cl
IC50 [1]: 30500 nM | IC50 [2]: 8170 nM | IC50 [3]: 6680 nM | IC50 [4]: 7560 nM | IC50 [5]: > 32000 nM | IC50 [6]: 15300 nM | IC50 [7]: 2010 nM | IC50 [8]: 1430 nM | IC50 [9]: > 32000 nM | IC50 [10]: 3150 nM | IC50 [11]: 6710 nM | IC50 [12]: 1150 nM | IC50 [13]: 4850 nM | IC50 [14]: 23000 nM | IC50 [15]: > 32000 nM | IC50 [16]: > 32000 nM | IC50 [17]: 12700 nM | IC50 [18]: 8560 nM | IC50 [19]: 4630 nM | IC50 [20]: 9220 nM | IC50 [21]: 12900 nM | IC50 [22]: > 32000 nM | IC50 [23]: 506 nM | IC50 [24]: > 32000 nM | IC50 [25]: 5120 nM | IC50 [26]: 1440 nM | IC50 [27]: 3390 nM | IC50 [28]: 2040 nM | IC50 [29]: 12300 nM | IC50 [30]: > 32000 nM | IC50 [31]: 20200 nM | IC50 [32]: > 32000 nM | IC50 [33]: 7250 nM | IC50 [34]: 21700 nM | IC50 [35]: 1430 nM | IC50 [36]: 2520 nM | IC50 [37]: 8570 nM | IC50 [38]: 6750 nM | IC50 [39]: 22900 nM | IC50 [40]: 1720 nM | IC50 [41]: > 32000 nM | IC50 [42]: 4950 nM | IC50 [43]: 4930 nM | IC50 [44]: 3710 nM | IC50 [45]: 2940 nM | IC50 [46]: 3840 nM | IC50 [47]: > 32000 nM | IC50 [48]: 17600 nM

Nc1ccn([C@@H]2O[C@H](CO)[C@@H](O)C2(F)F)c(=O)n1 [GEMCITABINE]
IC50 [1]: 53.4 nM | IC50 [2]: 84.4 nM | IC50 [3]: < 4 nM | IC50 [4]: > 1020 nM | IC50 [5]: > 1020 nM | IC50 [6]: 2.22 nM | IC50 [7]: 373 nM | IC50 [8]: 2.76 nM | IC50 [9]: > 1020 nM | IC50 [10]: 6.34 nM | IC50 [11]: > 1020 nM | IC50 [12]: < 4 nM | IC50 [13]: 774 nM | IC50 [14]: > 1020 nM | IC50 [15]: > 1020 nM | IC50 [16]: > 1020 nM | IC50 [17]: 736 nM | IC50 [18]: 95.5 nM | IC50 [19]: < 4 nM | IC50 [20]: 40.3 nM | IC50 [21]: 14.6 nM | IC50 [22]: 1.27 nM | IC50 [23]: 1.66 nM | IC50 [24]: > 1020 nM | IC50 [25]: 43.1 nM | IC50 [26]: 26.2 nM | IC50 [27]: 42.7 nM | IC50 [28]: 511 nM | IC50 [29]: 317 nM | IC50 [30]: 269 nM | IC50 [31]: 33.3 nM | IC50 [32]: > 1020 nM | IC50 [33]: 333 nM | IC50 [34]: 35.4 nM | IC50 [35]: 1.64 nM | IC50 [36]: < 4 nM | IC50 [37]: 583 nM | IC50 [38]: 6.68 nM | IC50 [39]: > 1020 nM | IC50 [40]: > 1020 nM | IC50 [41]: 86.6 nM | IC50 [42]: < 4 nM | IC50 [43]: 1.36 nM | IC50 [44]: < 4 nM | IC50 [45]: > 1020 nM | IC50 [46]: 364 nM | IC50 [47]: 174 nM | IC50 [48]: 224 nM

COc1cccc2c1C(=O)c1c(O)c3c(c(O)c1C2=O)C[C@@](O)(C(=O)CO)C[C@@H]3O[C@H]1C[C@H](N)[C@H](O)[C@H](C)O1 [DOXORUBICIN]
IC50 [1]: 64.2 nM | IC50 [2]: 162 nM | IC50 [3]: 38.4 nM | IC50 [4]: 872 nM | IC50 [5]: 39.2 nM | IC50 [6]: 61.3 nM | IC50 [7]: 257 nM | IC50 [8]: 69.7 nM | IC50 [9]: 286 nM | IC50 [10]: 17.4 nM | IC50 [11]: 569 nM | IC50 [12]: 2.12 nM | IC50 [13]: 323 nM | IC50 [14]: 626 nM | IC50 [15]: > 1020 nM | IC50 [16]: 1020 nM | IC50 [17]: 243 nM | IC50 [18]: 324 nM | IC50 [19]: 5.07 nM | IC50 [20]: 18.5 nM | IC50 [21]: 345 nM | IC50 [22]: 177 nM | IC50 [23]: 3.99 nM | IC50 [24]: > 1020 nM | IC50 [25]: 290 nM | IC50 [26]: 33.9 nM | IC50 [27]: 113 nM | IC50 [28]: 132 nM | IC50 [29]: 417 nM | IC50 [30]: > 1020 nM | IC50 [31]: 360 nM | IC50 [32]: > 1020 nM | IC50 [33]: 480 nM | IC50 [34]: 33.6 nM | IC50 [35]: 1.37 nM | IC50 [36]: 45 nM | IC50 [37]: 172 nM | IC50 [38]: 182 nM | IC50 [39]: > 1020 nM | IC50 [40]: 230 nM | IC50 [41]: > 1020 nM | IC50 [42]: 121 nM | IC50 [43]: 28.5 nM | IC50 [44]: 31.1 nM | IC50 [45]: 81.1 nM | IC50 [46]: 362 nM | IC50 [47]: 160 nM | IC50 [48]: 513 nM

From ChEMBL document CHEMBL1201861, “Genomics of Drug Sensitity in Cancer screening data, Wellcome Trust Sanger Institute”
